# Test results taken from article PMC9780888, “4-Isobutylmethcathinone—A Novel Synthetic Cathinone with High In Vitro Cytotoxicity and Strong Receptor Binding Preference of Enantiomers” (Pharmaceuticals, 2022).
# Where a name gives a salt, the structure may show the parent alone.
# What was measured:
# MRC-5 cells = assay: Fluorescence microscopy of cell morphology, MRC-5; type: cell-based, human; conditions: MRC-5, 24-h treatment, 100-500 µM
# Excerpt: In addition to the evaluation of IBMcat cytotoxicity in various cell lines, its impact on cell morphology was also examined in CaCo-2 and MRC-5 cells after 24-h treatment. F-actin and cell nuclei were visualized in these cells treated with 100, 300, and 500-µM concentrations of IBMcat and its enantiomers. IBMcat (Figure 7) induced a considerable change in CaCo-2 cell morphology already from 300-µM concentration, the cells were smaller, bore roundish shapes, and grew in clusters when compared to control untreated cells. This could be ascribed to the substantial toxicity of IBMcat manifested already after 24 h at this concentration. No difference was observed between the individual enantiomers.
# A total of 1 × 10^5 CaCo-2 and MRC-5 cells were seeded into 35-mm glass-bottom dishes for live-cell imaging ((#1.5, MatTek, USA; Ibidi dishes, Germany). After 16 h, the cells were gently washed with phosphate-buffered saline (PBS; pH 7.4), and then, cultivation media containing 100–500 µM IBMCat was added. Untreated cells and cells treated with the vehicle served as controls. After 24 h of the cell incubation with IBMCat, the cells were gently washed with PBS and then fixed with a 4% solution of formaldehyde (methanol-free, Thermo Fisher, USA) in PBS for 20 min. at 22 °C in the dark. Then, the fixative was discarded, and the cells were washed twice with PBS. […]
# [1] = target: T1, ADRA2B (alpha-2B adrenergic receptor) (Homo sapiens, UniProt P18089); assay: PRESTO-Tango β-arrestin 2 recruitment assay, ADRA2B; type: cell-based; conditions: 500 nM
# T1 construct: Tango construct (TEV cleavage site and tTA, as described for the dopamine receptor plasmids); host or cells: HTLA (HEK 293-derived)
# T1 sequence (P18089 whole entry): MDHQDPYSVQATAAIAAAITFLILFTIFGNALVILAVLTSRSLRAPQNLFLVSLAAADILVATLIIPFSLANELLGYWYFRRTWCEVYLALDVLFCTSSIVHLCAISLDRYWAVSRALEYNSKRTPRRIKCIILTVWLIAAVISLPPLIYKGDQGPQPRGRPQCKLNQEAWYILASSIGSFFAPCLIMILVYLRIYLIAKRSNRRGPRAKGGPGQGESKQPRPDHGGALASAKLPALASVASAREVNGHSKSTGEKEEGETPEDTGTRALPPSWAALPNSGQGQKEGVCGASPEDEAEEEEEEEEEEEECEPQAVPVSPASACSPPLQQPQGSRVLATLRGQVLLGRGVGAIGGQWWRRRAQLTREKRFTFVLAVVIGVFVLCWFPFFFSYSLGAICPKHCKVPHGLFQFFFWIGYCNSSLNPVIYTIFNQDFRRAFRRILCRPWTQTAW
# Description: (§1) The HTLA cell line was used for the PRESTO-Tango β-arrestin recruitment assay. The HTLA cells were provided as a gift from the laboratory of Bryan Roth (Roth Lab, USA). It is a human cell line derived from human embryonic kidney cells (HEK 293) stably expressing β-arrestin in a fusion with the tobacco etch virus protease (TEV) protease and the luciferase gene under the control of the transcription factor tetracycline transcriptional activator (tTA). The HTLA cells were cultured under standard incubation conditions (37 °C, 5% CO2, 95% humidity) in DMEM with 10% FBS. […]
# (§2) The transfected HTLA cells were incubated for 24 h, and then 1 × 10^4 cells were seeded per well of a white 96-well clear bottom plate (Brand, Germany) in 40 μL of DMEM with 1% charcoal-stripped FBS (Thermo Fisher Scientific, USA). […] After 5 min., the luminescence was measured using a multi-mode microplate reader SpectraMax iD5 (Molecular Devices, San Jose, CA, USA) measuring the entire wavelength spectrum. All samples were measured in quadruplicates. The data were evaluated by Prism 7 software (GraphPad, […], CA, USA). […]
# (§3) The error bar represents standard deviation from four replicates. The data were processed and evaluated by GraphPad Prism Software using one-way ANOVA: * p<0.05; ** p<0.01; *** […]
# [2] = target: T2, ADRB2 (beta-2 adrenergic receptor) (Homo sapiens, UniProt P07550); assay: PRESTO-Tango β-arrestin 2 recruitment assay, ADRB2; type: cell-based
# T2 construct: Tango construct (TEV cleavage site and tTA, as described for the dopamine receptor plasmids); host or cells: HTLA (HEK 293-derived)
# T2 sequence (P07550 whole entry): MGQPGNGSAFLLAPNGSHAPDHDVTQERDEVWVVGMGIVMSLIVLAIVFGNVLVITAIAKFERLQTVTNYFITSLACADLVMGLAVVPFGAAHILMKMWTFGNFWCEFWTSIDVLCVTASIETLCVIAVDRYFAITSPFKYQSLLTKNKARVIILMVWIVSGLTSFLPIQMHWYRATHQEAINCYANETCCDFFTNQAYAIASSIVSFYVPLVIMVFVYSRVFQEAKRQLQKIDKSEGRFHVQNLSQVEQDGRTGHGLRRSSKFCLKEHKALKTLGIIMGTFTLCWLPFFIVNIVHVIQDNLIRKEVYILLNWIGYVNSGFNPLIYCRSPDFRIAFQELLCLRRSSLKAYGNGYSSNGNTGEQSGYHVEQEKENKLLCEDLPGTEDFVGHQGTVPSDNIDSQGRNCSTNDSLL
# Description: as §1, §2, §3
SMILES,cell number compared with control (MRC-5 cells),effect on cell shape (MRC-5 cells),increase in RLU compared to untreated control [1] [fold],"increase in the luminescence signal ([2]; ADRB2, 50 and 100 nM) [fold]","increase in the luminescence signal ([2]; ADRB2, 1 and 5 nM) [fold]"
"CNC(C)C(=O)c1ccc(CC(C)C)cc1.Cl (centres unmarked) [IBMcat, 4-isobutylmethcathinone hydrochloride]",considerably lesser cells than in the control,did not induce any shape-related effect,1.5,1.5,
"CN[C@@H](C)C(=O)c1ccc(CC(C)C)cc1 [S-IBMCat, (S)-4-isobutylmethcathinone hydrochloride]",,,,,1.5
